Source: patent US20080293815A1, “HCA FOR IMPROVED HDL SERUM LIPIDS PROFILE” (Glykon Technologies Group, LLC, priority 2006, published 2008)
Several values for one entry are separate records, joined by “and”; a condition that tells them apart may be missing. Equal values may be shown once.

Legend:
rats = conditions: physiologic doses; cited from earlier work
[1] = system: male rats of Wistar strain; assay: Animal trial: serum total cholesterol, HDL and LDL in rats on cholesterol diet; type: in vivo, rat; conditions: for total cholesterol reduction (lowering) in comparison to the starting condition: 2 weeks; for HDL, Average / LDL, Average / Total cholesterol, Average: group average; for HDL / LDL / Total cholesterol: individual rat
Method: (§1) During the adaptation period, health was monitored by weighing and observing the animals. […] After 10 days of cholesterol-containing feed, all animals were in a state of hypercholesterolemia. One group served as the control, whereas group II, III, and IV received 0.5%, 1%, and 2% of KHCA (produced via the method of Example 2), respectively, in addition to the cholesterol diet. The salt solutions were given orally in 2 ml water daily. Group I received 2 ml of distilled water per 200 g body weight; group II received 1.03 mg KHCA in 2 ml water per 200 body weight; group III 2.06 mg; and group IV 4.12 mg. These treatments were continued for 2 weeks.
The animals were fasted for 12 hours prior to blood withdrawal. Rats were weighed and the 3-4 ml blood was obtained by amputating 2-3 cm of the tail. The blood was collected, let stand at room temperature for 30 minutes, and then centrifuged for 10-15 minutes. The serum was separated and refrigerated at 4° C. until ready for cholesterol analysis. Cholesterol level of the serum was analyzed using diagnostic kit (Boehringer Mannheim). Total cholesterol, LDL, and HDL were determined through spectrophotometric instrument (Hitachi). These are protocols frequently used in clinical laboratories.
Student's T-test was used to evaluate whether there was a difference between the control and each of the treated groups by comparing the data before and after the treatment. One-way variance analysis was performed to see if there was a statistically significant difference among the groups.

[2] = Animal trial: body weight, feed and water consumption, feces; type: in vivo, rat; conditions: for Body weight: group average
Method: as §1

[3] = animal model, U.S. Pat. No. 6,221,901; cited from earlier work
[4] = 0.5% KHCA (1.03 mg/day oral, 2 weeks), End Day 24
[5] = 0.5% KHCA group, Hypercholesterolemia Day 10 (before treatment)
[6] = 0.5% KHCA group, Start (before diet and treatment)
[7] = 1.0% KHCA (2.06 mg/day oral, 2 weeks), End Day 24
[8] = 1.0% KHCA group, Hypercholesterolemia Day 10 (before treatment)
[9] = 1.0% KHCA group, Start (before diet and treatment)
[10] = 2.0% KHCA (4.12 mg/day oral, 2 weeks), End Day 24
[11] = 2.0% KHCA group, Hypercholesterolemia Day 10 (before treatment)
[12] = 2.0% KHCA group, Start (before diet and treatment)
[13] = 2 ml of 2 percent daily for two weeks
[14] = 2 ml of 2 percent daily, value before the two weeks treatment
[15] = KHCA 0.5% group, Hyper-cholesterolemia (Day 10), before treatment
[16] = KHCA 0.5% group, Start (before diet and treatment)
[17] = KHCA 0.5%, 2 weeks oral, End (Day 24)
[18] = KHCA 1.0% group, Hyper-cholesterolemia (Day 10), before treatment
[19] = KHCA 1.0% group, Start (before diet and treatment)
[20] = KHCA 1.0%, 2 weeks oral, End (Day 24)
[21] = KHCA 2.0% group, Hyper-cholesterolemia (Day 10), before treatment
[22] = KHCA 2.0% group, Start (before diet and treatment)
[23] = KHCA 2.0%, 2 weeks oral, End (Day 24)
[24] = KHCA administration versus control group

O=C([O-])CC(O)(C(=O)[O-])C(O)C(=O)[O-].[K+].[K+].[K+] (centres unmarked) [KHCA, Potassium HCA Salt]
benefits with regard to insulin metabolism and blood pressure regulation (rats): significant results
total cholesterol reduction (lowering) in comparison to the starting condition ([1]; 0.5% K-HCA): 1.6 mg·dL
HDL, Average [1, 4]: 49.2 mg/dL
LDL, Average [1, 4]: 64.6 mg/dL
Total cholesterol, Average [1, 4]: 79.2 mg/dL
HDL [1, 4]: 40 mg/dL and 59 mg/dL and 43 mg/dL and 53 mg/dL and 51 mg/dL
LDL [1, 4]: 59 mg/dL and 77 mg/dL and 71 mg/dL and 60 mg/dL and 56 mg/dL
Total cholesterol [1, 4]: 82 mg/dL and 80 mg/dL and 76 mg/dL and 79 mg/dL (2×)
HDL, Average [1, 5]: 31 mg/dL
LDL, Average [1, 5]: 63.2 mg/dL
Total cholesterol, Average [1, 5]: 81 mg/dL
HDL [1, 5]: 27 mg/dL and 28 mg/dL and 39 mg/dL and 31 mg/dL and 30 mg/dL
LDL [1, 5]: 60 mg/dL (2×) and 70 mg/dL and 67 mg/dL and 59 mg/dL
Total cholesterol [1, 5]: 83 mg/dL and 84 mg/dL and 76 mg/dL and 80 mg/dL and 82 mg/dL
HDL, Average [1, 6]: 39 mg/dL
LDL, Average [1, 6]: 28.8 mg/dL
Total cholesterol, Average [1, 6]: 72.6 mg/dL
HDL [1, 6]: 37 mg/dL and 40 mg/dL and 41 mg/dL and 39 mg/dL and 38 mg/dL
LDL [1, 6]: 31 mg/dL and 28 mg/dL and 33 mg/dL and 27 mg/dL and 25 mg/dL
Total cholesterol [1, 6]: 74 mg/dL and 73 mg/dL and 69 mg/dL and 72 mg/dL and 75 mg/dL
HDL, Average [1, 7]: 53 mg/dL
LDL, Average [1, 7]: 58.2 mg/dL
Total cholesterol, Average [1, 7]: 71 mg/dL
HDL [1, 7]: 58 mg/dL and 60 mg/dL and 49 mg/dL and 46 mg/dL and 52 mg/dL
LDL [1, 7]: 69 mg/dL and 51 mg/dL and 48 mg/dL and 60 mg/dL and 63 mg/dL
Total cholesterol [1, 7]: 73 mg/dL and 71 mg/dL and 75 mg/dL and 69 mg/dL and 67 mg/dL
HDL, Average [1, 8]: 31.8 mg/dL
LDL, Average [1, 8]: 60.4 mg/dL
Total cholesterol, Average [1, 8]: 79.6 mg/dL
HDL [1, 8]: 28 mg/dL and 37 mg/dL (2×) and 30 mg/dL and 27 mg/dL
LDL [1, 8]: 67 mg/dL and 59 mg/dL and 54 mg/dL and 60 mg/dL and 62 mg/dL
Total cholesterol [1, 8]: 75 mg/dL and 82 mg/dL and 84 mg/dL and 80 mg/dL and 77 mg/dL
HDL, Average [1, 9]: 39 mg/dL
LDL, Average [1, 9]: 29 mg/dL
Total cholesterol, Average [1, 9]: 72.6 mg/dL
HDL [1, 9]: 36 mg/dL and 40 mg/dL and 43 mg/dL and 39 mg/dL and 37 mg/dL
LDL [1, 9]: 28 mg/dL and 29 mg/dL and 33 mg/dL and 30 mg/dL and 25 mg/dL
Total cholesterol [1, 9]: 69 mg/dL and 74 mg/dL and 72 mg/dL and 75 mg/dL and 73 mg/dL
total cholesterol reduction (lowering) in comparison to the starting condition ([1]; 1.0% KHCA): 2.06 mg·dL
change of HDL concentration in blood serum ([1]; 2.0% (4.12 mg) KHCA daily, control group decreased): increased
total cholesterol reduction (lowering) in comparison to the starting condition ([1]; 2.0% KHCA (4.12 mg daily)): 12.2 mg·dL
HDL, Average [1, 10]: 63.4 mg/dL
LDL, Average [1, 10]: 50 mg/dL
Total cholesterol, Average [1, 10]: 61.2 mg/dL
HDL [1, 10]: 64 mg/dL and 61 mg/dL and 67 mg/dL and 59 mg/dL and 66 mg/dL
LDL [1, 10]: 61 mg/dL and 46 mg/dL and 50 mg/dL and 44 mg/dL and 49 mg/dL
Total cholesterol [1, 10]: 59 mg/dL and 66 mg/dL and 52 mg/dL and 58 mg/dL and 71 mg/dL
HDL, Average [1, 11]: 34.6 mg/dL
LDL, Average [1, 11]: 63.2 mg/dL
Total cholesterol, Average [1, 11]: 82 mg/dL
HDL [1, 11]: 31 mg/dL and 37 mg/dL and 40 mg/dL and 33 mg/dL and 32 mg/dL
LDL [1, 11]: 69 mg/dL and 61 mg/dL and 59 mg/dL and 60 mg/dL and 67 mg/dL
Total cholesterol [1, 11]: 83 mg/dL and 85 mg/dL and 81 mg/dL and 79 mg/dL and 82 mg/dL
HDL, Average [1, 12]: 38.8 mg/dL
LDL, Average [1, 12]: 29.8 mg/dL
Total cholesterol, Average [1, 12]: 73.4 mg/dL
HDL [1, 12]: 38 mg/dL and 40 mg/dL and 41 mg/dL and 36 mg/dL and 39 mg/dL
LDL [1, 12]: 31 mg/dL and 29 mg/dL and 26 mg/dL and 33 mg/dL and 30 mg/dL
Total cholesterol [1, 12]: 75 mg/dL and 70 mg/dL and 72 mg/dL and 73 mg/dL and 77 mg/dL
HDL level, after treatment [1, 13]: 63 mg/dL
serum cholesterol LDL level, after treatment [1, 13]: 50 mg·dL
HDL level, before treatment [1, 14]: 35 mg/dL
serum cholesterol LDL level, before treatment [1, 14]: 63 mg/dL
LDL/HDL Ratio [1, 15]: 2.04
Total Cholesterol/HDL [1, 15]: 2.61
LDL/HDL Ratio [1, 16]: 0.74
Total Cholesterol/HDL [1, 16]: 1.86
LDL/HDL Ratio [1, 17]: 1.31
Total Cholesterol/HDL [1, 17]: 1.61
LDL/HDL Ratio [1, 18]: 1.9
Total Cholesterol/HDL [1, 18]: 2.50
LDL/HDL Ratio [1, 19]: 0.74
Total Cholesterol/HDL [1, 19]: 1.86
LDL/HDL Ratio [1, 20]: 1.1
Total Cholesterol/HDL [1, 20]: 1.34
LDL/HDL Ratio [1, 21]: 1.83
Total Cholesterol/HDL [1, 21]: 2.36
LDL/HDL Ratio [1, 22]: 0.77
Total Cholesterol/HDL [1, 22]: 1.89
LDL/HDL Ratio [1, 23]: 0.79
Total Cholesterol/HDL [1, 23]: 0.97
Body weight ([2]; 0.5% KHCA (1.03 mg/day oral), At Hypercholesterolemia, before treatment): 202.4 grams
Body weight ([2]; 0.5% KHCA (1.03 mg/day oral), End of Experiment, after 2 weeks treatment): 199.5 grams
Body weight ([2]; 0.5% KHCA (1.03 mg/day oral), Start of Experiment, before cholesterol diet and treatment): 162.8 grams
Body weight ([2]; 1.0% KHCA (2.06 mg/day oral), At Hypercholesterolemia, before treatment): 195.0 grams
Body weight ([2]; 1.0% KHCA (2.06 mg/day oral), End of Experiment, after 2 weeks treatment): 193.2 grams
Body weight ([2]; 1.0% KHCA (2.06 mg/day oral), Start of Experiment, before cholesterol diet and treatment): 157.7 grams
Body weight ([2]; 2.0% KHCA (4.12 mg/day oral), At Hypercholesterolemia, before treatment): 192.7 grams
Body weight ([2]; 2.0% KHCA (4.12 mg/day oral), End of Experiment, after 2 weeks treatment): 183.7 grams
Body weight ([2]; 2.0% KHCA (4.12 mg/day oral), Start of Experiment, before cholesterol diet and treatment): 166.9 grams
effect on body weight [2, 13]: reduced body weight
feces consistency [2, 24]: softer
feed consumption [2, 24]: lower feed consumption

O=C([O-])CC(O)(C(=O)[O-])C(O)C(=O)[O-].[K+].[Mg+2] (centres unmarked) [potassium-magnesium HCA, Potassium-Magnesium Hydroxycitrate Salt]
benefits with regard to insulin metabolism and blood pressure regulation (rats): significant results

Magnesium HCA
increase in HDL [3]: 8.5%
